Measurements reported in ChEMBL document CHEMBL1136902, “Binaphthyl scaffolded peptoids via ring-closing metathesis reactions and their anti-bacterial activities” (2009).
Converted amounts (≈) assume the structure as drawn.

System: Staphylococcus aureus
Assay: Antibacterial activity against Staphylococcus aureus ATCC 6538
Assay type: functional

| Structure (SMILES) | MIC [µg/mL] |
| --- | --- |
| C=CCOc1ccc2ccccc2c1-c1c(OCC(=O)N[C@H](CCCCNC(=N)N)C(=O)N[C@H](CC=C)C(=O)OC)ccc2ccccc12.Cl | 8 |
| C=CCOc1ccc2ccccc2c1-c1c(OCC(=O)N[C@H](CCCCN)C(=O)N[C@H](CC=C)C(=O)OC)ccc2ccccc12.Cl | 4 |
| COC(=O)[C@@H]1C/C=C\COc2ccc3ccccc3c2-c2c(ccc3ccccc23)OCC(=O)N[C@H](CCCCNC(=N)N)C(=O)N1.Cl | 8 |
| COC(=O)[C@@H]1C/C=C/Cc2ccc3c(c2)c2cc(ccc2n3C(=O)OC(C)(C)C)[C@H](NC(C)=O)C(=O)N[C@H](CCCCN)C(=O)N1 | 15 (≈ 23.7 µM) |
| C=CCOc1ccc2ccccc2c1-c1c(OCCCC(=O)N[C@H](CCCCN)C(=O)N[C@H](CC=C)C(=O)OC)ccc2ccccc12.Cl | 15 |
| COC(=O)C1CC=CCOc2ccc(cc2)C[C@H](NC(C)=O)C(=O)N[C@@H](CCCCN)C(=O)N1 (stereo partly specified) | 62.5 (≈ 132 µM) |
| COC(=O)[C@H]1C/C=C/Cn2cc(c3ccccc32)CCCC(=O)N[C@H](CCCCN)C(=O)N1 | 125 (≈ 275 µM) |
| COC(=O)[C@@H]1C/C=C/Cc2cc3ccccc3c(c2OC)-c2c(OC)c(cc3ccccc23)CC(NC(C)=O)C(=O)N[C@H](CCCCN)C(=O)N1 (stereo partly specified) | 7 (≈ 10.1 µM) |
| COC(=O)C1CC=CCOc2ccc(cc2)C[C@H](NC(C)=O)C(=O)N[C@@H](CCCNC(=N)N)C(=O)N1 (stereo partly specified) | 62.5 (≈ 124 µM) |
| COC(=O)C1C/C=C\COc2ccc(cc2)CC(NC(C)=O)C(=O)NC(CCCCNC(=N)N)C(=O)N1 (stereo unspecified) | 62.5 (≈ 121 µM) |
| CN[C@H](CC(C)C)C(=O)N[C@H]1C(=O)N[C@@H](CC(N)=O)C(=O)N[C@H]2C(=O)N[C@H]3C(=O)N[C@H](C(=O)N[C@H](C(=O)O)c4cc(O)cc(O)c4-c4cc3ccc4O)[C@H](O)c3ccc(c(Cl)c3)Oc3cc2cc(c3O[C@@H]2O[C@H](CO)[C@@H](O)[C@H](O)[C@H]2O[C@H]2C[C@](C)(N)[C@H](O)[C@H](C)O2)Oc2ccc(cc2Cl)[C@H]1O [VANCOMYCIN] | 1.95 (≈ 1.35 µM) |
| COC(=O)[C@H]1C/C=C/Cn2cc(c3ccccc32)CCC(=O)N[C@H](CCCCN)C(=O)N1 | 125 (≈ 284 µM) |
| COC(=O)[C@@H]1C/C=C\COc2ccc3ccccc3c2-c2c(ccc3ccccc23)OCC(=O)N[C@H](CCCCN)C(=O)N1.Cl | 15 |
| C=CCOc1ccc2ccccc2c1-c1c(OCC(=O)N[C@H](CCCCN)C(=O)OC)ccc2ccccc12.Cl | 32 |
| COC(=O)[C@H]1C/C=C/Cn2cc(c3ccccc32)CC(=O)N[C@H](CCCCN)C(=O)N1 | 125 (≈ 293 µM) |
| C=CCOc1ccc2ccccc2c1-c1c(OCCCC(=O)N[C@H](CCCCNC(=N)N)C(=O)N[C@H](CC=C)C(=O)OC)ccc2ccccc12.Cl | 8 |
